In patent publication US20100047246A1, “Methods and Compositions for Treating Vascular Disease” (The General Hospital Corporation, priority 2006, published 2010):

Experiments:
[1] = tested on: Tg(flk1:GFP) embryos; assay: lycat morpholino and mRNA injections, cloche phenotype and GFP scoring in transgenic embryos; format: in vivo, zebrafish; settings: for flk1:GFP signals in vessels: 24 hpf; for flk1:GFP signals in vessels / gata1:GFP signal in the blood islands: a345 control, lycat RNA 300 ng/ul; for flk1:GFP signals in vessels / gata1:GFP signal in the blood islands / Wild-type (phenotype), number of embryos / clo (phenotype), number of embryos: d522 0.3 mM; for gata1:GFP signal in the blood islands: gata1:GFP embryos; for Wild-type (phenotype), number of embryos / clo (phenotype), number of embryos: injected into 1- to 2-cell stage Tg(flk1:GFP) embryos, scored at 36 hpf and 48 hpf, a345 0.5 mM, Lycat RNA 0.3 μg/μl
Procedure: The cloche alleles, clo^m39 and clo^m378 have been previously described (Stainier et al., Development 121:3141, 1995; Stainier et al., Development 123:285, 1996). A new ENU-induced allele, clo^fv087b was also used. Genetic mapping of cloche was carried out using hybrid F1 (Clo^m39×TL, clo^m378×TL, clo^fv087b×WIK). Transgenic lines Tg(flk1:GFP) and Tg(gata1:GFP) (Long et al., Proc. Natl. Acad. Sci. U.S.A. 94:6267, 1997; Cross et al., ArterioScler. Thromb. Vasc. Biol. 23:911, 2003), were crossed with heterozygous clo^fv087b fish to generate transgenic clo^fv087b individuals. Examining cloche phenotypes and the GFP expression of embryos from sibling crossings identified heterozygous clo^fv087b/+ fish with the Tg(flk1:GFP) or Tg(gata1:GFP).
(§1) Four morpholinos were synthesized: three anti-sense morpholinos targeting the zebrafish lycat ATG site (atg): […] (SEQ ID NO:5); the second splicing donor site (d322): […] (SEQ ID NO:6); the third splicing donor site (d522): […] (SEQ ID NO:7); and a control morpholino (a345): […] (SEQ ID NO:8) (Gene Tools, LLC). Zebrafish lycat and mouse lycat were cloned into the pCS2 vector, and capped mRNA was synthesized using mRNA in vitro transcription kits (Ambion Inc., Austin, Tex.). Morpholinos and mRNA were injected into one- or two-cell stage wild-type, clo^fv087b; Tg(flk1:GFP) or clo^fv087b; Tg(gata1:GFP) embryos. Injected embryos were incubated at 28.5° C. for examination of phenotypes or were fixed for in situ hybridization. The bright-field pictures were taken using a Zeiss M12 dissecting microscope, and the fluorescence pictures were taken with a Zeiss Stemi SVII Apo fluorescence microscope.

[2] = tested on: scl expression in the ICM; assay: scl RNA in situ hybridization in injected embryos; format: in vivo, zebrafish; settings: d522 0.3 mM, 0.4 mM, 0.5 mM, 20 hpf, RNA in situ analysis
Text: FIG. 3. Antisense lycat morpholinos mimic the cloche mutant phenotype and lycat mRNA rescues morpholino mediated knockdown.
as §1
In situ hybridization and antibody staining were done in the presence of blocking solution (Roche, Basil, Switzerland), in the RNA hybridization solution, and antibody staining solution (Schulte-Merker, Looking at embryos, 2002). […]

For “a345: control morpholino: GCAGCGGGCACTGCTGGTGGAAGT (SEQ ID NO:8) (all phosphorodiamidate morpholino (PMO)) [reference compound]”, the “flk1:GFP signals in vessels” value [1] was “strong flk1:GFP signals”, the “gata1:GFP signal in the blood islands” value [1] was “strong gata1:GFP signal” and the “Wild-type (phenotype), number of embryos” value [1] was 65. For the same substance, the “clo (phenotype), number of embryos” value [1] was 0.
With “d522: anti-sense morpholino targeting zebrafish lycat third splicing donor site: CTGAACACACACACTGACCGAAGC (SEQ ID NO:7) (all phosphorodiamidate morpholino (PMO))” the “injected embryos showing a clear cloche phenotype (lack blood cells, vascular endothelium, endocardium)” value ([1]; 0.3 mM d522, 5 nl, Tg(flk1:GFP) embryos, 36 hpf and 48 hpf, 132 out of 150) was 88%, the “flk1:GFP signals in vessels” value [1] was “very little flk1:GFP signals” and the “gata1:GFP signal in the blood islands” value [1] was “very little gata1:GFP signal”. The “Wild-type (phenotype), number of embryos” value [1] was 18, the “clo (phenotype), number of embryos” value [1] was 132 and the “scl expression in the ICM” value [2] was “decreased scl”. The “scl expression in the ICM” value ([2]; listed as lycat morpholino) was “reduces expression of Scl in the intermediate cell mass (ICM) in a dose-dependent manner”.
